The values below come from US12297203B2, “Pyrrolopyrimidine ITK inhibitors” (ACLARIS THERAPEUTICS, INC., priority 2018, dated 2025).

The target of assay [1] is ITK (Homo sapiens (Human), UniProt Q08881). Put plainly: ITK inhibitor binding potency (LanthaScreen competitive binding assay). The conditions noted are these: read-out: ITK Inh. IC50. The procedure, abridged:
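TR-FRET tracer displacement: 10 nM GST-ITK, 2 nM Eu-anti-GST, 50 nM tracer-236 in HEPES pH 7.5, MgCl2, 2% DMSO; 11 points, 20 µM–0.34 nM. Run with or without 2 h compound–ITK preincubation before tracer; IC50 by 4-parameter fit of emission ratio.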
For orientation: In TR-FRET formats the signal depends on donor and acceptor labels being close together.

Assay [2] deals with ITK phosphorylation of its substrate, PLCγ1, at Y783. Nature of the assay: ITK target modulation assay (PLCγ1 Y783 phosphorylation, anti-CD3 stimulated Jurkat T cells). In kind it is cell-based. To be noted: Homo sapiens, Jurkat, anti-CD3 Dynabeads stimulation, read-out: PLC-γ Inh. IC50. The procedure, abridged:
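Jurkat cells (400,000/well) were preincubated with compound for 1 h at 37 °C (0.1% DMSO final), then stimulated with anti-CD3 Dynabeads (bead:cell 2:1). Hypotonic lysates were dot-blotted and probed for phospho-PLCγ1 Y783 and total PLCγ1, with quantification by dual-channel infrared imaging.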

In assay [3] the test system is JAK1/3 phosphorylation of its substrate, STAT5, at Y694. Nature of the assay: JAK1/3 target modulation assay (IL-2 stimulated STAT5 Y694 phosphorylation in PBMC). In kind it is cell-based. To be noted: Homo sapiens, PBMC, Primary human peripheral blood mononuclear cells, IL-2 25 ng/mL; read-out: IL2-STAT5 Inh. IC50. The procedure, abridged:
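Human PBMCs preincubated with compound for 1 h at 37 °C, then stimulated with IL-2 (25 ng/mL final) for 5 min. Cells were lysed and phospho-STAT5a,b (Y694) measured by MSD electrochemiluminescence immunoassay, single-plex or multiplex with total STAT5a,b.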

Assay [4] has as its target JAK3 (Homo sapiens (Human), UniProt P52333). Put plainly: JAK3 enzyme activity assay (Caliper mobility shift). Type of assay: biochemical. To be noted: ATP at Km level; read-out: JAK3 Inh. IC50. In short, it runs like this:
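Caliper mobility-shift assay with 2.5 nM JAK3, […] and […] (Km level) in 20 mM HEPES pH 7.5, 10 mM MgCl2, 0.01% BSA, 0.0005% Tween-20, 2% DMSO. 11-point dose-response from […] 0.34 nM; IC50 by 4-parameter logistic fit of product/substrate signal.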

JAK3, sequence (P52333 781-1124): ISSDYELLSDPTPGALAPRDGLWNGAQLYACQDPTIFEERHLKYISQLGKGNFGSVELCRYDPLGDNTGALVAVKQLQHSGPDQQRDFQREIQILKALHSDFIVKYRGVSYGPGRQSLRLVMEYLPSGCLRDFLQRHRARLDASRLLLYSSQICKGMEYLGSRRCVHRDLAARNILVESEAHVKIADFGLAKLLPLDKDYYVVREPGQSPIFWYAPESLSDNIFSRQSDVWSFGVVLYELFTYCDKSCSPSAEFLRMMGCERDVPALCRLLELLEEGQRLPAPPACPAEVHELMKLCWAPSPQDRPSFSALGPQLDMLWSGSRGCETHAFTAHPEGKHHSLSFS
ITK, sequence (Q08881 whole entry): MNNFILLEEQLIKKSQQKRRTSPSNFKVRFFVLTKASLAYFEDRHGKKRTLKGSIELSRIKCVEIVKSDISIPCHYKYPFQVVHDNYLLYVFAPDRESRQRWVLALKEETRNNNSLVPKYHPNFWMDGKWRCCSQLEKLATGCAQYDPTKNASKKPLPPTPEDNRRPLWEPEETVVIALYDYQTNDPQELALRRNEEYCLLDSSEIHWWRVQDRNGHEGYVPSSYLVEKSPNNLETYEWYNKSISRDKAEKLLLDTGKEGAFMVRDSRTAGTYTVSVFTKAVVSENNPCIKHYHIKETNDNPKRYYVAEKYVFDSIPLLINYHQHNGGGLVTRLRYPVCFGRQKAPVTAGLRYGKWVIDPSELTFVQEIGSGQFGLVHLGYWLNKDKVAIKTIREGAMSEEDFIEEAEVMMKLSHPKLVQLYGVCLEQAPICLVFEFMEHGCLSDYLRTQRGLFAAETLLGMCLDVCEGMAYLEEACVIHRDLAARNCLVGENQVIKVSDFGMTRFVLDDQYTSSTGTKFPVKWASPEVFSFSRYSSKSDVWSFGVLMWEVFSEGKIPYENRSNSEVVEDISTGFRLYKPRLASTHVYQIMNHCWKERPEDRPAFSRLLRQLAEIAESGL

Consider `C=CC(=O)N1C[C@H](Nc2ncnc3[nH]cc(C(=O)C4CCC4)c23)CC[C@@H]1C` [Example 17, 1-((2S,5R)-5-((5-(cyclobutanecarbonyl)-7H-pyrrolo[2,3-d]pyrimidin-4-yl)amino)-2-methylpiperidin-1-yl)prop-2-en-1-one], for which the 50% inhibitory concentration (IC50) (as a rule, the midpoint of a concentration-inhibition curve) was no more than 10 nM in assay [1], no more than 100 nM in assay [2], 100 to 1000 nM in assay [3] and no more than 10 nM in assay [4].
For `C=CC(=O)N1CCC[C@@H](Nc2ncnc3[nH]cc(CC4CC4)c23)C1` [Example 18, (R)-1-(3-((5-(cyclopropylmethyl)-7H-pyrrolo[2,3-d]pyrimidin-4-yl)amino)piperidin-1-yl)prop-2-en-1-one], the IC50 was no more than 10 nM in assay [1], no more than 100 nM in assay [2], 100 to 1000 nM in assay [3] and no more than 10 nM in assay [4].
For the compound `C=CC(=O)N1CCC[C@@H](Nc2ccnc3[nH]cc(CC4CC4)c23)C1` [Example 19, (R)-1-(3-((3-(cyclopropylmethyl)-1H-pyrrolo[2,3-b]pyridin-4-yl)amino)piperidin-1-yl)prop-2-en-1-one], the half-maximal inhibitory concentration (IC50) in assay [1] is no more than 10 nM; in assay [2], no more than 100 nM; in assay [3] it was 100 to 1000 nM; in assay [4], no more than 10 nM.
For `C=CC(=O)N1CCC[C@@H](Nc2ncnc3[nH]cc(CC4CCC4)c23)C1` [Example 20, (R)-1-(3-((5-(cyclobutylmethyl)-7H-pyrrolo[2,3-d]pyrimidin-4-yl)amino)piperidin-1-yl)prop-2-en-1-one], the IC50 in assay [1] is no more than 10 nM; in assay [2], 100 to 1000 nM; in assay [3] it was 100 to 1000 nM; in assay [4] it was no more than 10 nM.
Regarding `C=CC(=O)N1CCC[C@@H](Nc2ncnc3[nH]cc(C(C)C4CC4)c23)C1` (stereo partly drawn) [Example 21, 1-((3R)-3-((5-(1-cyclopropylethyl)-7H-pyrrolo[2,3-d]pyrimidin-4-yl)amino)piperidin-1-yl)prop-2-en-1-one], the IC50 in assay [1] was greater than 100 nM; in assay [2] it was greater than 1000 nM; in assay [3] it was greater than 1000 nM; in assay [4] it was greater than 100 nM.
`C=CC(=O)N1CCC[C@@H](Nc2ncnc3[nH]cc(CC4CCCC4)c23)C1` [Example 22, (R)-1-(3-((5-(cyclopentylmethyl)-7H-pyrrolo[2,3-d]pyrimidin-4-yl)amino)piperidin-1-yl)prop-2-en-1-one]: the concentration for half-maximal inhibition (IC50) in assay [1] was no more than 10 nM; in assay [2] it was 100 to 1000 nM; in assay [3] it was 100 to 1000 nM; in assay [4], no more than 10 nM.
As to `C=CC(=O)N1CCC[C@@H](Nc2ncnc3[nH]cc(C4(C)CC4)c23)C1` [Example 23, (R)-1-(3-((5-(1-methylcyclopropyl)-7H-pyrrolo[2,3-d]pyrimidin-4-yl)amino)piperidin-1-yl)prop-2-en-1-one], the concentration for half-maximal inhibition (IC50) is no more than 10 nM in assay [1], 100 to 1000 nM in assay [2], 100 to 1000 nM in assay [3] and no more than 10 nM in assay [4].
Turning to `C=CC(=O)N1C[C@H](Nc2ncnc3[nH]cc(CC4CC4)c23)CC[C@@H]1C` [Example 24, 1-((2S,5R)-5-((5-(cyclopropylmethyl)-7H-pyrrolo[2,3-d]pyrimidin-4-yl)amino)-2-methylpiperidin-1-yl)prop-2-en-1-one], the IC50 in assay [1] was no more than 10 nM; in assay [2] it was no more than 100 nM; in assay [3], 100 to 1000 nM; in assay [4] it was no more than 10 nM.
As for `C=CC(=O)N1CCC[C@@H](Nc2ncnc3[nH]cc(C4CC4(F)F)c23)C1` (stereo partly drawn) [Example 27, 1-((3R)-3-((5-(2,2-difluorocyclopropyl)-7H-pyrrolo[2,3-d]pyrimidin-4-yl)amino)piperidin-1-yl)prop-2-en-1-one], the IC50 in assay [1] is no more than 10 nM; in assay [2], no more than 100 nM; in assay [3], 100 to 1000 nM; in assay [4] it was no more than 10 nM.
On to `C=CC(=O)N1CCC[C@@H](Nc2ncnc3[nH]cc(C4CCCC4)c23)C1` [Example 28, (R)-1-(3-((5-cyclopentyl-7H-pyrrolo[2,3-d]pyrimidin-4-yl)amino)piperidin-1-yl)prop-2-en-1-one], for which the 50% inhibitory concentration (IC50) was no more than 10 nM in assay [1], no more than 100 nM in assay [2], 100 to 1000 nM in assay [3] and no more than 10 nM in assay [4].
`C=CC(=O)N1CCC[C@@H](Nc2ncnc3[nH]cc(C4=CCCC4)c23)C1` [Example 29, (R)-1-(3-((5-(cyclopent-1-en-1-yl)-7H-pyrrolo[2,3-d]pyrimidin-4-yl)amino)piperidin-1-yl)prop-2-en-1-one]: the half-maximal inhibitory concentration (IC50) in assay [1] is no more than 10 nM; in assay [2], 100 to 1000 nM; in assay [3], 100 to 1000 nM; in assay [4], no more than 10 nM.
As for `C=CC(=O)N1C[C@H](Nc2ncnc3[nH]cc(C4CCCC4)c23)CC[C@@H]1C` [Example 30, 1-((2S,5R)-5-((5-cyclopentyl-7H-pyrrolo[2,3-d]pyrimidin-4-yl)amino)-2-methylpiperidin-1-yl)prop-2-en-1-one], the IC50 in assay [1] is no more than 10 nM; in assay [2], no more than 100 nM; in assay [3], no more than 100 nM; in assay [4] it was no more than 10 nM.
Consider `C=CC(=O)N1C[C@H](Nc2ncnc3[nH]cc(C(=O)OC(C)(C)C)c23)CC[C@@H]1C` [Example 31, tert-butyl 4-(((3R,6S)-1-acryloyl-6-methylpiperidin-3-yl)amino)-7H-pyrrolo[2,3-d]pyrimidine-5-carboxylate], for which the IC50 is no more than 10 nM in assay [1], 100 to 1000 nM in assay [2], 100 to 1000 nM in assay [3] and no more than 10 nM in assay [4].
Turning to `C=CC(=O)N1C[C@H](Nc2ncnc3[nH]cc(C(=O)C4CC4)c23)CC[C@@H]1C` [Example 32, 1-((2S,5R)-5-((5-(cyclopropanecarbonyl)-7H-pyrrolo[2,3-d]pyrimidin-4-yl)amino)-2-methylpiperidin-1-yl)prop-2-en-1-one], the IC50 in assay [1] is no more than 10 nM; in assay [2], 100 to 1000 nM; in assay [3] it was 100 to 1000 nM; in assay [4], no more than 10 nM.
Turning to `C=CC(=O)N1C[C@H](Nc2ccnc3[nH]cc(C(=O)C4CC4)c23)CC[C@@H]1C` [Example 34, 1-((2S,5R)-5-((3-(cyclopropanecarbonyl)-1H-pyrrolo[2,3-b]pyridin-4-yl)amino)-2-methylpiperidin-1-yl)prop-2-en-1-one], the concentration for half-maximal inhibition (IC50) in assay [1] is no more than 10 nM; in assay [2], no more than 100 nM; in assay [3], 100 to 1000 nM; in assay [4], no more than 10 nM.
Turning to `C=CC(=O)N1C[C@H](Nc2ccnc3[nH]cc(CC4CC4)c23)CC[C@@H]1C` [Example 35, 1-((2S,5R)-5-((3-(cyclopropylmethyl)-1H-pyrrolo[2,3-b]pyridin-4-yl)amino)-2-methylpiperidin-1-yl)prop-2-en-1-one], the IC50 in assay [1] was no more than 10 nM; in assay [2], 100 to 1000 nM; in assay [3] it was 100 to 1000 nM; in assay [4] it was no more than 10 nM.
In the case of `C[C@H]1CC[C@@H](Nc2ncnc3[nH]cc(CC4CC4)c23)CN1C(=O)/C=C/CN(C)C` [Example 37, (E)-1-((2S,5R)-5-((5-(cyclopropylmethyl)-7H-pyrrolo[2,3-d]pyrimidin-4-yl)amino)-2-methylpiperidin-1-yl)-4-(dimethylamino)but-2-en-1-one], the IC50 in assay [1] is no more than 10 nM; in assay [2] it was 100 to 1000 nM; in assay [3], greater than 1000 nM; in assay [4], 10 to 100 nM.
In the case of `C=CC(=O)N1CC(Nc2ncnc3[nH]cc(CC4CC4)c23)CCC1CC` (stereo not drawn) [Example 38, 1-(5-((5-(cyclopropylmethyl)-7H-pyrrolo[2,3-d]pyrimidin-4-yl)amino)-2-ethylpiperidin-1-yl)prop-2-en-1-one], the IC50 in assay [1] was no more than 10 nM; in assay [2], 100 to 1000 nM; in assay [3], 100 to 1000 nM; in assay [4], no more than 10 nM.
Regarding `C=CC(=O)N1CC(Nc2ncnc3[nH]cc(CC4CC4)c23)CCC1C(C)C` (stereo not drawn) [Example 41, 1-(5-((5-(cyclopropylmethyl)-7H-pyrrolo[2,3-d]pyrimidin-4-yl)amino)-2-isopropylpiperidin-1-yl)prop-2-en-1-one], the half-inhibitory concentration (IC50) in assay [1] is 10 to 100 nM; in assay [2], 100 to 1000 nM; in assay [3], greater than 1000 nM; in assay [4] it was 10 to 100 nM.
Consider `C=CC(=O)N1C[C@H](Nc2ncnc3[nH]cc(C4(C)CC4(F)F)c23)CC[C@@H]1C` (stereo partly drawn) [Example 50, 1-((2S,5R)-5-((5-(2,2-difluoro-1-methylcyclopropyl)-7H-pyrrolo[2,3-d]pyrimidin-4-yl)amino)-2-methylpiperidin-1-yl)prop-2-en-1-one], for which the IC50 in assay [1] was no more than 10 nM; in assay [2], no more than 100 nM; in assay [3] it was 100 to 1000 nM; in assay [4], no more than 10 nM.
With `C=CC(=O)N1CCC(Nc2cnc3[nH]cc(C(=O)OCC)c3c2)CC1` [Example 96, ethyl 5-((1-acryloylpiperidin-4-yl)amino)-1H-pyrrolo[2,3-b]pyridine-3-carboxylate], the IC50 in assay [1] was greater than 100 nM; in assay [2], greater than 1000 nM; in assay [3], 100 to 1000 nM; in assay [4], no more than 10 nM.
